Reference: a melting point compilation (Tetko et al.; mined from patent text by program, amines drawn as free bases though some values may be those of a salt)

`Cc1nc(-c2ccc(S(C)(=O)=O)cc2)c(-c2ccc(-c3cscn3)cc2)s1` gave a melting point of 194 °C.
Work on `Cc1ccc(C=CC#N)cc1C` yielded a melting point of 93.9 °C.
Work on `O=C1NCCCN1Cc1ccc2ccccc2c1` yielded a melting point of 151 to 155 °C.
`COC(=O)C=Cc1ccc(C=CC(=O)OC)cc1` showed a melting point of 163 to 167 °C.
With `Cc1cc(O)nc2nc(SCc3ccccc3)nn12` the melting point was 219 to 220 °C.
With `COc1ccc(CC2NC(=O)NC2=O)cc1CCc1ccccc1` (configuration not stated) the melting point was 147 to 149 °C.
Work on `COc1ccccc1Oc1c(NS(=O)(=O)c2c(C)noc2C)nc(N2CCOCC2)nc1OCCO` yielded a melting point of 144 to 147 °C.
For `CC1(C(=O)c2c[nH]c3ncc(-c4cccs4)nc23)CCCCC1`, the melting point was 224 to 225 °C.
For `CS(=O)c1ncccc1C(=O)c1cnoc1C1CC1` (configuration not stated), the melting point was 148 to 152 °C.
`O=C(OC1c2nccnc2C(=O)N1c1ccc2ccc(Cl)nc2n1)N1CCCCC1` (configuration not stated) gave a melting point of 249 °C.
With `O=C(O)[C@@H]1CCC(=O)N1C(=O)c1ccccc1` the melting point was 140 to 141 °C.
Compound `CCc1cc(CNc2nc3ccccc3o2)c(=S)[nH]c1C` has a melting point of 238 to 240 °C.
In the case of `O=C(OCc1ccc([N+](=O)[O-])cc1)N1CCC(O)CC1`, the melting point was 91.5 to 94 °C.
Work on `Oc1ccc(CCNCC(O)c2ccc(OCc3ccccc3)cc2)cc1OCc1ccccc1` (configuration not stated) yielded a melting point of 124 to 125 °C.
`CN1C(=O)[C@@H](CN2CCCCC2)C[C@H]1c1ccc(Br)s1` gave a melting point of 69 to 71 °C.
For `OCCCc1cccc2ccncc12`, the melting point was 66 to 69 °C.
Work on `CC(=O)OC1CSC(Oc2ccc(S(C)(=O)=O)cc2)C(OC(C)=O)C1OC(C)=O` (configuration not stated) yielded a melting point of 168 °C.
In the case of `CCn1c2ccccc2c2cc(C=C(c3ccccc3)c3ccccc3)ccc21`, the melting point was 145 to 146 °C.
For `COc1ccccc1Cn1c(=O)c2c(N3CCNCC3)cc(Cl)cc2n(Cc2ccccc2)c1=O`, the melting point was 122 to 125 °C.
With `Cc1csc(N)c1S(=O)(=O)NC(=S)NC(C)C` the melting point was 118 to 120 °C.
For `CCNC(=O)c1cccs1`, the melting point was 75 to 78 °C.
With `Cc1cc(-c2cccc(-c3ccc(CCCNC4CCc5ccccc5C4)cc3)n2)c(C)[nH]1` (configuration not stated) the melting point was 120 to 130 °C.
Work on `O=C(O)C(=O)c1ccc(CCCNC(=O)c2ccc3ccccc3c2)cc1` yielded a melting point of 126 to 128 °C.
Compound `COc1ccc(OCc2cccc(C(=O)O)c2)cc1Cc1cnc(N)nc1N` has a melting point of 140 °C.
`CCN(CC)CC(=O)OC1CC2(C)C(C(C)=O)CCC2C2CCC3CC(O)C(Br)CC3(C)C12` (configuration not stated) gave a melting point of 149 to 150 °C.
`O=C1Nc2ccccc2SC1CCBr` (configuration not stated) gave a melting point of 151 to 152 °C.
Compound `Cc1cc(CCc2cc(C)cc(C(C)(C)C)c2O)c(O)c(C(C)(C)C)c1` has a melting point of 104 to 105 °C.
`COc1cc2ncnc(Nc3ccc4[nH]ccc4c3)c2cc1I` gave a melting point of 260 to 267 °C.
Work on `Cn1cc(-c2cccc(C(F)(F)F)c2)c(=O)c(-c2ccccc2C(F)(F)F)c1` yielded a melting point of 135 to 138 °C.
`CC12CCC(O)CC1CCC1C2CCC2(C)C(c3ccnnc3)CCC12O` (configuration not stated) showed a melting point of 210 to 213 °C.
Compound `Cc1ccc(NC(=O)c2cnn3c(C(F)(F)F)cc(-c4ccc(C(F)(F)F)cc4)nc23)cc1S(N)(=O)=O` has a melting point of 297 °C.
For `Clc1nccc(N2CCC3(CC2)OCc2ccccc23)c1Cl`, the melting point was 161 °C.
With `COc1ccc(C2OC3(CCNCC3)N3CCCCC23)cc1` (configuration not stated) the melting point was 128 to 130 °C.
Compound `O=C(Nc1cccc2c3c(oc12)CCC=C3)c1c(Cl)cccc1Cl` has a melting point of 165 to 167 °C.
Work on `CC(C)(O)C(O)c1ccc(-c2ccc(/C(=C/C3CCOCC3)c3ccc(S(=O)(=O)C4CC4)cc3)[nH]2)nc1` (configuration not stated) yielded a melting point of 196 to 197 °C.
`Cc1nc(N2CCN(Cc3ccc(F)cc3)C2=O)sc1C(=O)NCc1cnccn1` showed a melting point of 185 to 187 °C.
Compound `CC1(C)OC(=S)Nc2ccc(-c3cc(Cl)cc(Cl)c3)cc21` has a melting point of 206 to 208 °C.
With `N#Cc1cc(I)c(I)[nH]1` the melting point was 211 to 213 °C.
Work on `O=C(O)C(O)P(=O)(O)O` (configuration not stated) yielded a melting point of 153 to 154 °C.
With `Cc1coc(N2CCCC2=O)n1` the melting point was 116 °C.
`CC(=Cc1ccc(O)c(Cl)c1)[N+](=O)[O-]` showed a melting point of 91 to 93 °C.
With `CCOC(=O)Cc1ccc(NC(=O)Nc2ccccc2C(F)(F)F)cc1` the melting point was 137 to 139 °C.
With `CCC(C)OC(=O)C(S)(C#N)C1=NC(C)Cc2cc(OC)c(OC)cc21` (configuration not stated) the melting point was 113 to 114 °C.
Work on `CC(C)(C)C(NC(=O)c1cccc(-c2ccco2)c1)Nc1c(Nc2cccnc2)c(=O)c1=O` (configuration not stated) yielded a melting point of 251 to 252 °C.
Compound `CC(C)(C)c1ccc(OCCCCCCN2CCN(c3nccs3)CC2)cc1` has a melting point of 30 to 32 °C.
`CCOC(=O)CCC(=O)c1ccc(Cl)cc1O` showed a melting point of 68 to 69 °C.
With `CCOc1cccc(N2C(=O)C(=CN(C)C)c3ccccc32)c1` the melting point was 99 to 102 °C.
With `O=C(/C=C/c1cccc(NC(=O)CCCc2ccccc2)c1)NO` the melting point was 152 to 153 °C.
In the case of `O=C(c1ccc(OC(F)(F)F)cc1)c1sccc1O`, the melting point was 67 to 70 °C.
`O=C(/C=C/c1ccc2c(c1)OCCO2)CC(=O)/C=C/c1ccc2c(c1)OCCO2` showed a melting point of 184 to 187 °C.
For `O=C(O)c1ccc(-c2nc3ccccc3s2)cc1`, the melting point was 294 to 296 °C.
`COc1ccc(CNc2nc(-n3ccnc3)nc3sc(C)cc23)cc1OC` gave a melting point of 207 °C.
For `O=C(Nc1ccc(OCc2ccncc2)c2ccccc12)c1cc(F)cc(N2CCOCC2)c1`, the melting point was 157 to 159 °C.
Work on `CN(C)CCNS(=O)(=O)c1cc(NC(=O)c2cnn3c(C(F)F)cc(-c4ccc(C(F)(F)F)cc4)nc23)c(Cl)s1` yielded a melting point of 162 °C.
With `CCOC(=O)Cc1c2n(c3ccc(F)cc13)C(c1ccc(SC)cc1)=NCC2` the melting point was 119 to 120 °C.
Compound `Nc1c(Cl)c(F)nc(F)c1Cl` has a melting point of 110 °C.
`CCNCC1CN(c2c(F)cc3c(=O)c(C(=O)O)cn(C4CC4)c3c2F)CCO1` (configuration not stated) showed a melting point of 210 to 213 °C.
In the case of `O=P(O)(CCCNCc1cc(Cl)cc(Cl)c1)CC1CCCCC1`, the melting point was 231 to 233 °C.
For `COc1cc2c(cc1Nc1ncc(Cl)c(Nc3ccccc3S(=O)(=O)N(C)C)n1)CCN(CCN1CCOCC1)C(=O)C2`, the melting point was 75 to 91 °C.
`O=C(c1cc(Cl)ccc1O)c1cc(Cl)cc([N+](=O)[O-])c1O` gave a melting point of 153 °C.
In the case of `Cc1nc(CC#N)c2c(OCc3ccccc3)cccn12`, the melting point was 118 to 119 °C.
`C(#Cc1ccccn1)CCn1nnc(-c2ccccc2)n1` showed a melting point of 71 to 73 °C.
`Cc1ccc(C)c(S(=O)(=O)Nc2onc(C)c2Br)c1` showed a melting point of 102 to 104 °C.
`COc1cc2ncnc(NS(=O)(=O)c3ccc(Br)cc3)c2cc1OC` showed a melting point of 241 to 242 °C.
With `O=C(OCC=Cc1ccccc1)c1cccc2nnsc12` the melting point was 70 to 72 °C.
`O=C1c2ccccc2C(=O)N1CCCCOc1ccc(-c2ccccc2)cc1` gave a melting point of 110 to 111 °C.
Work on `Cc1cc(C2=CCN(S(=O)(=O)C(C)(C)C(=O)O)CC2)ccc1-c1cnc2ccccc2c1` yielded a melting point of 222 to 224 °C.
Work on `O=C1c2c(O)cc(O)cc2OC(c2ccc(O)cc2)C1O` (configuration not stated) yielded a melting point of 221 to 223 °C.
Work on `Cc1cc(C)n(-c2ncc(C)c(Nc3ccc(Cl)cc3)n2)n1` yielded a melting point of 179 to 182 °C.
Compound `COc1ccc2[nH]cc(CC(=O)N3CCN(c4ccc(NC(=N)c5cccs5)cc4)CC3)c2c1` has a melting point of 221 to 222 °C.
For `Nc1ccc2ncnc(Nc3cc(Cl)c(Cl)cc3F)c2c1`, the melting point was 265 °C.
`O=C(NCCCS(=O)c1ccncc1)c1cccs1` (configuration not stated) gave a melting point of 101 to 102 °C.
In the case of `Cc1ccc2c(c1)N(CC(=O)NC(C)(C)C)C(=O)C(Br)CC2c1ccccc1C` (configuration not stated), the melting point was 219 to 221 °C.
`Cc1cc(C(C)(C)C)cc(C)c1C(=O)O` gave a melting point of 160 to 164 °C.
`CCN(CC)c1nc(N)c(SC)c(Cl)n1` gave a melting point of 68 °C.
Compound `CCOCc1nc2c(N)nc3ccccc3c2n1CC(C)(C)OCCS(=O)(=O)c1ccccc1` has a melting point of 187 to 189 °C.
In the case of `N#CC1=Cc2ccccc2N(C(N)=O)c2ccccc21`, the melting point was 143 to 145 °C.
With `O=C(c1sc2c(ccc(=O)n2-c2ccccc2)c1Br)N1CC(O)C1` the melting point was 199 °C.
Work on `O=[N+]([O-])c1cccc2c1ccn2S(=O)(=O)c1cccc2ccccc12` yielded a melting point of 156 to 157 °C.
Work on `CC(C)n1nc(-c2nc(C#Cc3cncn3C)c(N)nc2-c2ccccc2)ccc1=O` yielded a melting point of over 250 °C.
Work on `CC(C)Cc1nc2sc3c(NCc4cccnc4)ncnc3c2c2c1CCC(C)(C)C2` yielded a melting point of 230 °C.
Work on `CNc1nn(C)c2nc3n(c(=O)c12)CCS3` yielded a melting point of 255 to 256 °C.
`CCOC(=O)c1cnc2c(C)cc(-c3ccc(Cl)cc3)cn12` showed a melting point of 147 °C.
Compound `CC(=O)Oc1c2cc(C(F)(F)F)c(C(F)(F)F)cc2c(OC(C)=O)c2cc3ccccc3cc12` has a melting point of 149 to 153 °C.
With `O=C(O)c1cc([N+](=O)[O-])ccc1C(=O)c1ccccc1` the melting point was 176 to 179 °C.
Compound `O=C(Nc1cccnn1)N1CCN(c2cncc(-c3ccc(F)cc3F)c2)CC1` has a melting point of 172 to 173 °C.
For `O=C(NCc1ccccc1)c1ccnc(NC(=O)c2cccc3ccccc23)c1`, the melting point was 65 to 67 °C.
With `COc1ccc(C(=O)N(C(=O)c2ccc(OC)cc2)c2nc3ccc([N+](=O)[O-])cc3c(NCc3ccccc3)c2C#N)cc1` the melting point was 145 to 148 °C.
With `COc1ccc(C(=O)c2cc(Br)ccc2NC(=O)C(F)(F)F)cc1` the melting point was 149 °C.
For `CCC(C)Nc1cc(N2CCc3cc(OC)cc(Cl)c32)nc(C)n1` (configuration not stated), the melting point was 102 to 105 °C.
In the case of `CCCCc1nc(CO)c(C(=O)ON2C(=O)CCC2=O)n1Cc1ccc(-c2ccccc2C(=O)OC(C)(C)C)cc1`, the melting point was 107 to 109 °C.
`COc1ccc(C2(CCC(=O)O)SCCCS2)cc1OC` gave a melting point of 134 to 135 °C.
In the case of `COc1cc(Cl)nnc1NS(=O)(=O)c1ccc(Cl)s1`, the melting point was 120 to 122 °C.
For `OC(CN1CCC(c2noc3cc(F)ccc23)CC1)CN1CCCc2ccccc21` (configuration not stated), the melting point was 170 to 171 °C.
`C(=Cc1ccccc1)Cn1ccnc1` gave a melting point of 37 to 38 °C.
In the case of `ON=Cc1csc2ccccc12`, the melting point was 87 to 89 °C.
In the case of `COC(=O)c1ccc(C=O)c2ccccc12`, the melting point was 95 to 96 °C.
`CCOC(=O)[C@@H](NS(=O)(=O)c1ccc(N2CCC(=O)CC2)cc1)C(C)C` showed a melting point of 77 to 80 °C.
In the case of `CC(C=O)C1CCC2C3CCC4CCCCC4(C)C3CCC12C` (configuration not stated), the melting point was 248 to 252 °C.
With `O=C(NC(=O)c1c(Cl)cccc1Cl)Nc1ccc(C(F)(F)F)cn1` the melting point was 228 to 230 °C.
With `CC1(C)CCC(C)(C)c2cc3cc(-c4ccc(C(=O)O)s4)ccc3cc21` the melting point was 254 to 255 °C.
Work on `CCS(=O)(=O)Nc1cccc(SCc2ccccc2)n1` yielded a melting point of 87 to 92 °C.
